Data as given in patent publication US8895474B2, “Herbicidally active cyclopentanediones and derivatives thereof, and their use in controlling weeds” (Syngenta Limited, priority 2009, dated 2014).

How the values were obtained:
Format in all cases: in vivo
Conditions in all cases: 312 h, rate 250 g/ha, evaluated after 13 days, 100=total damage to plant, 0=no damage to plant
[1] = tested on: Echinochloa crus-galli (ECHCG); assay: Post-emergence herbicidal activity, glasshouse pot test
Procedure: (§1) Seeds of a variety of test species were sown in standard soil in pots. After cultivation for one day (pre-emergence) or after 8 days cultivation (post-emergence) under controlled conditions in a glasshouse (at 24/16° C., day/night; 14 hours light; 65% humidity), the plants were sprayed with an aqueous spray solution derived from the formulation of the technical active ingredient in acetone/water (50:50) solution containing 0.5% Tween 20 (polyoxyethelyene sorbitan monolaurate, CAS RN 9005-64-5). The test plants were then grown in a glasshouse under controlled conditions in a glasshouse (at 24/16° C., day/night; 14 hours light; 65% humidity) and watered twice daily. After 13 days for pre and post-emergence, the test was evaluated (100=total damage to plant; 0=no damage to plant). Test Plants: Lolium perenne (LOLPE), Alopecurus myosuroides (ALOMY), Echinochloa crus-galli (ECHCG), and Avena fatua (AVEFA). Post-Emergence Activity

Lolium perenne (LOLPE) [2] = assay: as above
Procedure: as §1

[3] = tested on: Alopecurus myosuroides (ALOMY); assay: as above
Procedure: as §1

Avena fatua (AVEFA) [4] = assay: as above
Procedure: as §1

[5] = tested on: Echinochloa crus-galli (ECHCG); assay: Pre-emergence herbicidal activity, glasshouse pot test
Procedure: as §1, with “Pre-Emergence” for “Post-Emergence”

Lolium perenne (LOLPE) [6] = assay: as above
Procedure: as §1, with “Pre-Emergence” for “Post-Emergence”

[7] = tested on: Alopecurus myosuroides (ALOMY); assay: as above
Procedure: as §1, with “Pre-Emergence” for “Post-Emergence”

Avena fatua (AVEFA) [8] = assay: as above
Procedure: as §1, with “Pre-Emergence” for “Post-Emergence”

Compound	pest or weed control at 250 g/ha [1] [%]	pest or weed control at 250 g/ha (Lolium perenne (LOLPE) [2]) [%]	pest or weed control at 250 g/ha [3] [%]	pest or weed control at 250 g/ha (Avena fatua (AVEFA) [4]) [%]	pest or weed control at 250 g/ha [5] [%]	pest or weed control at 250 g/ha (Lolium perenne (LOLPE) [6]) [%]	pest or weed control at 250 g/ha [7] [%]	pest or weed control at 250 g/ha (Avena fatua (AVEFA) [8]) [%]
CCc1ccc(Oc2ccc(F)cc2)cc1C1=C(O)C2C(C1=O)[C@H]1CC[C@@H]2CC1 (stereo partly shown) [Compound A-30]	100	10	60	20	80	70	30	20
CCc1ccc(Oc2ccc(Cl)cc2)cc1C1=C(O)C2C(C1=O)[C@H]1CC[C@@H]2CC1 (stereo partly shown) [Compound A-31]	100	40	100	80	90	50	20	0
CCc1ccc(Oc2ccc(Cl)cc2F)cc1C1=C(O)C2C(C1=O)[C@H]1CC[C@@H]2CC1 (stereo partly shown) [Compound A-32]	100	30	90	90	60	40	0	0
CCc1ccc(Oc2ccc(Cl)c(F)c2)cc1C1=C(O)C2C(C1=O)[C@H]1CC[C@@H]2CC1 (stereo partly shown) [Compound A-33]	100	0	90	90	50	50	20	0
CCc1ccc(Oc2ccc(Br)cc2F)cc1C1=C(O)C2C(C1=O)[C@H]1CC[C@@H]2CC1 (stereo partly shown) [Compound A-34]	90	40	80	90	70	50	20	30
CCc1ccc(Oc2ccc(Br)cc2Cl)cc1C1=C(O)CCC1=O [Compound A-35]	30	20	10	20	20	60	30	10
CCc1ccc(Oc2ccc(Br)cc2)cc1C1=C(O)CCC1=O [Compound A-37]	80	30	20	20	20	10	10	0
CCc1ccc(Oc2ccc(Cl)cc2)cc1C1=C(O)CCC1=O [Compound A-39]	60	10	10	0	40	0	20	30
CCc1ccc(Oc2ccc(Cl)cc2F)cc1C1=C(O)CCC1=O [Compound A-40]	30	10	10	10	40	10	0	0
CCc1ccc(Oc2ccc(Cl)c(F)c2)cc1C1=C(O)CCC1=O [Compound A-41]	70	20	0	10	30	0	0	0
CCc1ccc(Oc2ccc(Br)cc2F)cc1C1=C(O)CCC1=O [Compound A-42]	70	10	0	0	30	0	0	0
